PMC7932521, “2-aminobenzimidazoles for leishmaniasis: From initial hit discovery to in vivo profiling” (PLoS Neglected Tropical Diseases, 2021)
pEC50, pIC50: −log10 of the molar value. Where two headings read alike, the source gives them in different places.

Assays:
ETA [1] = target: T1, ETA (Homo sapiens, UniProt P25101); assay: Bioprofiling 6pt Antag ETA CHO; format: cell-based; conditions: antagonist readout vs Endothelin-1 (ET-1)
T1 construct: expressed in transfected cells; host or cells: CHO
T1 sequence (P25101 21-427): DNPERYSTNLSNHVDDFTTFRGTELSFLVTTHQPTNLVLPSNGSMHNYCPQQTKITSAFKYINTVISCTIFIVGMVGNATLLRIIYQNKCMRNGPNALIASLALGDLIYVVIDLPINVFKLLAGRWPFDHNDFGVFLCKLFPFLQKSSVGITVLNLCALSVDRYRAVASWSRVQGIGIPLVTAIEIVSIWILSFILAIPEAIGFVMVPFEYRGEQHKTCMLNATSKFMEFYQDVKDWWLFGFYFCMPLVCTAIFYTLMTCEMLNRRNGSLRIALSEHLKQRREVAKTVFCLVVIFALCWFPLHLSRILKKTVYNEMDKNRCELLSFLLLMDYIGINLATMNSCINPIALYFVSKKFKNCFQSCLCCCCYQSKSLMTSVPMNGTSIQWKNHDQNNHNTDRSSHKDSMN
Procedure: (§1) The compounds were evaluated across a panel of 20 liability targets (37 functional assays) which included functional cell-based GPCRs and ion channels in both agonist and antagonist readout, measuring calcium flux and biochemical functional assays for nuclear hormone receptors and phosphodiesterases using TR-FRET format, in a 6 point 1:3 dilution dose series (maximum final concentration of 10 μM).

Cav1.2 (L-type) [2] = target: T2, Cav1.2 (L-type) (Mus musculus, UniProt Q01815); assay: Bioprofiling 6pt Antag Cav1.2 (L-type) ND7/23; format: cell-based; conditions: mouse/rat, ND7/23 cells; antagonist readout vs KCl
T2 sequence (Q01815 whole entry): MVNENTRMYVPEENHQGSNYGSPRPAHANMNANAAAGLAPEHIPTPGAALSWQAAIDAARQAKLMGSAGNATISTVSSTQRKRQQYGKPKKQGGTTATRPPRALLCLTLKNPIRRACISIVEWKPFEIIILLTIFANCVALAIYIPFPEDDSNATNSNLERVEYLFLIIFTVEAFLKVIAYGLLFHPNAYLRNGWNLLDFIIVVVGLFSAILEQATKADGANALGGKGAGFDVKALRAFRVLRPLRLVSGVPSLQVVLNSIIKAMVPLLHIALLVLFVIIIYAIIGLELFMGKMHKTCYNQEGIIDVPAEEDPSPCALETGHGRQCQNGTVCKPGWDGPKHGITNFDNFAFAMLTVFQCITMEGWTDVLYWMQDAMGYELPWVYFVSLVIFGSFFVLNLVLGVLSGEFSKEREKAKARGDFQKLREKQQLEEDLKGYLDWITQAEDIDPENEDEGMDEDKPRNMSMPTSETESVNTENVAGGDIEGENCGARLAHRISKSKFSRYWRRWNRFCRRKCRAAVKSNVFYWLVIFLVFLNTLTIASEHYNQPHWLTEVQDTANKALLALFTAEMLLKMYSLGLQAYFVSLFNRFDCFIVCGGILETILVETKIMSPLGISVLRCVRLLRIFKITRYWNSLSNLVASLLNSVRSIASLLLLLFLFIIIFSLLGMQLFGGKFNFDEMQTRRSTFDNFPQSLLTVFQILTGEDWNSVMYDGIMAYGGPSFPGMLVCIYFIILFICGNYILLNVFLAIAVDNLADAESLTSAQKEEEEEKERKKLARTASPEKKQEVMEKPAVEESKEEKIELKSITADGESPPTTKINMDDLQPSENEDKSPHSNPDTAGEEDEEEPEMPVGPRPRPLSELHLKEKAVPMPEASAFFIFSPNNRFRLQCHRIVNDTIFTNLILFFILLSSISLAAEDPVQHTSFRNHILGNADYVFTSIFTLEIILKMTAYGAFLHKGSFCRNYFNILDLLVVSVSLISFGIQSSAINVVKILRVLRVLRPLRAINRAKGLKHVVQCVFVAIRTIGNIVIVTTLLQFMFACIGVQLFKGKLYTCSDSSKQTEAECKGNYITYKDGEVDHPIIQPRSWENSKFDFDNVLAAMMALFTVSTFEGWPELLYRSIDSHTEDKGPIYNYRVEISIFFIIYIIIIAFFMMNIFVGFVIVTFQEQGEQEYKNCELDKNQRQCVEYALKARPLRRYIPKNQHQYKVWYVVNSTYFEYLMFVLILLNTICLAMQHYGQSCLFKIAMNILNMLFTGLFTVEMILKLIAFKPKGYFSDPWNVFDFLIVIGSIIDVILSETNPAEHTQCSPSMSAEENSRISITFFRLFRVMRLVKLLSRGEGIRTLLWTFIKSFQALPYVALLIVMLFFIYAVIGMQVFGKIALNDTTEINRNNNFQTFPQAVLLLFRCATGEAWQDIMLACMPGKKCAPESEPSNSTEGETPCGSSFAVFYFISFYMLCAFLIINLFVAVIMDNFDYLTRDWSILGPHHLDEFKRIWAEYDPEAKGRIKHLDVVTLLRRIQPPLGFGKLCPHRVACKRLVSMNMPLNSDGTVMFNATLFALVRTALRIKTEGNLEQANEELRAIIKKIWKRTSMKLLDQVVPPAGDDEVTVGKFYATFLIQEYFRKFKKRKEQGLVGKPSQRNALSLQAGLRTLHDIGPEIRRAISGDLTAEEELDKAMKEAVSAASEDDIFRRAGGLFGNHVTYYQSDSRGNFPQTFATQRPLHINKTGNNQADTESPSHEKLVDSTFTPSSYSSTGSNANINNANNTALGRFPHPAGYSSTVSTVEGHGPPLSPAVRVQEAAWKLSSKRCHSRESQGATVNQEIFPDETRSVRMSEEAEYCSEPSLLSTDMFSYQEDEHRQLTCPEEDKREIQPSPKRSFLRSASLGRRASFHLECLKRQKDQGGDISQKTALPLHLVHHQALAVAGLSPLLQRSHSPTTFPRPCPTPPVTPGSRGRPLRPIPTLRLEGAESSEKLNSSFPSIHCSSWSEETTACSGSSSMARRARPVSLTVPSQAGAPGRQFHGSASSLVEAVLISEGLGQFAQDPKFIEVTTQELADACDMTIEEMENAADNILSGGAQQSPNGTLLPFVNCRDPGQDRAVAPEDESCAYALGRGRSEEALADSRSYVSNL
Procedure: as §1

MRC-5 cytotoxicity = format: cell-based; conditions: human, MRC-5 cells; S1 Data
5-HT2A = target: T3, 5-HT2A (Homo sapiens, UniProt P28223); assay: Bioprofiling 6pt Ag 5-HT2A CHO; format: cell-based; conditions: agonist readout
T3 construct: expressed in transfected cells; host or cells: CHO
T3 sequence (P28223 whole entry): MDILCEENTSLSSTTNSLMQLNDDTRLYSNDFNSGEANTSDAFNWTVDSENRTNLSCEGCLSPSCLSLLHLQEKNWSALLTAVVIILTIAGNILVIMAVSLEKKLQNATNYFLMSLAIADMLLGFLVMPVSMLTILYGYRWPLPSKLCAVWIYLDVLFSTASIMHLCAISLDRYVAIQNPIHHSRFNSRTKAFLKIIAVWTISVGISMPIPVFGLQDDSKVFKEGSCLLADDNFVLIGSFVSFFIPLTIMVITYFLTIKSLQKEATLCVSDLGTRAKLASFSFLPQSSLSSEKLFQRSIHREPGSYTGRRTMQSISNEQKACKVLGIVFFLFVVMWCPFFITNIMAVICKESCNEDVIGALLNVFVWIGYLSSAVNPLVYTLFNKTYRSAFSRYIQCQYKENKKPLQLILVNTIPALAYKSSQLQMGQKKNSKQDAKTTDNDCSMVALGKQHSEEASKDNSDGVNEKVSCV
Procedure: as §1

[3] = system: PMM (Primary Mouse Macrophages); assay: Cytotoxicity on primary peritoneal mouse macrophages; format: cell-based; conditions: Mus musculus, Macrophage
Procedure, shortened: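 Host cells were peritoneal macrophages from Swiss mice, harvested after 2 days of starch stimulation and kept in RPMI-1640 with 5% FCS at 37 °C, 5% CO2. Compounds were tested in 4-fold dilutions from 64 μM, with final DMSO below 1%.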

Cav1.2 (L-type) [4] = target: T2, Cav1.2 (L-type); assay: Bioprofiling 6pt Ag Cav1.2 (L-type) ND7/23; format: cell-based; conditions: mouse/rat, ND7/23 cells; agonist readout
Procedure: as §1

ETA [5] = target: T1, ETA; assay: Bioprofiling 6pt Ag ETA CHO; format: cell-based; conditions: agonist readout
Procedure: as §1

D2L = target: T4, D2L (Homo sapiens, UniProt P14416); assay: Bioprofiling 6pt Ag D2L CHO; format: cell-based; conditions: agonist readout
T4 construct: expressed in transfected cells; host or cells: CHO
T4 sequence (P14416 whole entry): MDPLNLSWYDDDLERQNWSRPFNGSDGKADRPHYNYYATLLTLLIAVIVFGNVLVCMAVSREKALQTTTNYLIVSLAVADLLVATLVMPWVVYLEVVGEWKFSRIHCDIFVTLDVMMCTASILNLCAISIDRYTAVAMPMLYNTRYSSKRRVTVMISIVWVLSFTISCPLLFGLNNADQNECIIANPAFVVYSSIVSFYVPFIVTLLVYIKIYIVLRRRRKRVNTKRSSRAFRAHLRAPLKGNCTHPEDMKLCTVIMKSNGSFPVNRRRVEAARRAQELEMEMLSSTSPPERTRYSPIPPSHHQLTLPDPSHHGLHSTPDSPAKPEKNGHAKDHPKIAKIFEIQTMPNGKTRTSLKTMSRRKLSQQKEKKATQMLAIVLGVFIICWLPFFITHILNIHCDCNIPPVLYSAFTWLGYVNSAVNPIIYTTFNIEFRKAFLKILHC
Procedure: as §1

CB1 = target: T5, CB1 (Homo sapiens, UniProt P21554); assay: Bioprofiling 6pt Antag CB1 CHO; format: cell-based; conditions: antagonist readout vs WIN 55,212-2
T5 construct: expressed in transfected cells; host or cells: CHO
T5 sequence (P21554 whole entry): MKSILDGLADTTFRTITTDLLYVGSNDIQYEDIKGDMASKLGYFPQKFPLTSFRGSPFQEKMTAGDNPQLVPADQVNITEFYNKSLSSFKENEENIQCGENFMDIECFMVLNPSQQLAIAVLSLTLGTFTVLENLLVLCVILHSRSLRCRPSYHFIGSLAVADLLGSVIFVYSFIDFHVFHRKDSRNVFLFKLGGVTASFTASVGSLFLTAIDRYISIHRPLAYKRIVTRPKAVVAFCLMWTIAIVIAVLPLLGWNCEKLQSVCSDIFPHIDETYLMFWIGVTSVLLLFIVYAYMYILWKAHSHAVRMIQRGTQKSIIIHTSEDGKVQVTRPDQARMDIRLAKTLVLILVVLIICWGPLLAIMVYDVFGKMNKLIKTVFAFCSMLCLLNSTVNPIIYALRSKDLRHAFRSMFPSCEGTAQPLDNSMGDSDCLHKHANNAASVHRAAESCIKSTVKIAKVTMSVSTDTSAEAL
Procedure: as §1

MRC-5 cells = assay: MRC-5 cytotoxicity; format: cell-based; conditions: for CC50: S1 Data; for pIC50: Homo sapiens, MRC5, panel sheet, average, read-out: IC-50 MRC-5 cells
Plasma protein binding = format: in vitro ADME; conditions: mouse, pH 7.4, % bound, read-out: Mouse PPB (converted)
Procedure: For plasma protein binding, pooled plasma was thawed in a water bath at 37°C and centrifuged at 4,000 rpm for 5 min to remove any clots. The pH value was measured and adjusted to 7.4, if necessary. RPMI medium (pH 7.4) supplemented with 10% fetal calf serum was used. Working solutions (400 μM) of test compounds were prepared by diluting appropriate volume of the stock solutions with DMSO. Working solutions (400 μM) were spiked into plasma to achieve 2 μM final concentrations as loading solutions. The concentration of organic solvent in the final solutions was 0.5% DMSO. The dialysis instrument was assembled following manufacturer’s instructions. Aliquots of loading solution were loaded in triplicate to the donor side of each dialysis well and dialyzed against an equal volume of dialysis buffer. The plate was shaken and incubated for 6 hours in a humidified incubator with 5% CO2 at 37°C. At the end of dialysis, aliquots of dialysate and retentate were removed into sample collection plates. Each sample was matched with an opposite blank buffer or plasma, with a ratio of matrix:dialysis buffer of 50:50 (v:v) in each well and participated with 500μL of stop solution (50% acetonitrile/methanol; internal standards—200 ng/mL tolbutamide, labetalol and 50 ng/mL metformin). All sample collection plates were rotated at 800 rpm for 5 min to mix samples and centrifuged at 20°C, 4000 rpm for 20 min. Aliquots of supernatant of all the samples were removed and injected into LC-MS/MS. Results were calculated as the percentage of remaining parent compound in plasma or medium after incubation.

[6] = Human liver microsomal stability; format: in vitro ADME; conditions: liver microsomes, pH 7.4; human liver microsome; read-out: HLM Clint
Procedure: The metabolic stability of the compounds was evaluated in human (pool of 200 donors, XenoTech) and mouse liver microsomes (CD1 mouse, GIBCO). Test compounds were prepared at a concentration of 0.5 μM and incubated with 0.25 mg/mL liver microsomes at pH 7.4 and 37°C. The reaction was started by addition of NADPH at […]. Samples were taken at 0, 5, 10, 15, 20 and 30 minutes. The reaction was stopped by the addition of acetonitrile:methanol (1:1) containing an internal standard (tolbutamide at 50 nM). Compounds were quantified by liquid chromatography triple quadrupole mass spectrometry (LC-MS/MS). Peak area ratios (analyte/internal standard) were converted to % remaining using the area ratio at time 0 as 100%. Half-life (t1/2 = ln(2)/k) in minutes and intrinsic clearance (Clint = k x 1000/(0.25)) in μL/min/mg were calculated using a non-linear regression from % remaining versus incubation time. From this plot, the slope (k) was determined. The analysis conditions were: analytical column (Gemini C18, […], Phenomenex), electrospray ionization source (ESI) in positive and negative mode, mobile phase A (water + 0.1% formic acid) and B (acetonitrile + 0.1% formic acid), flow rate of 0.7 mL/min.

[7] = read-out: IC-50 PMM (Primary Mouse Macrophages)

Structure (SMILES)	pIC50 (ETA [1])	pIC50 (Cav1.2 (L-type) [2])	CC50 (MRC-5 cytotoxicity) [µM]	pEC50 (5-HT2A)	pIC50 ([3]; read-out: PMM IC50)	pEC50 (Cav1.2 (L-type) [4])	pEC50 (ETA [5])	pEC50 (D2L)	pIC50 (CB1)	CC50 (MRC-5 cells) [µM]	fraction unbound at 6 h, 2 μM (Plasma protein binding)	microsomal CLint at 0.5 μM [6] [µL/min/mg]	pIC50 (MRC-5 cells)	pIC50 [3, 7]
COc1ccc(C(=O)Nc2nc3ccc(C#N)cc3n2CC(F)(F)F)cn1 [Compound 43, O=C(c1ccc(OC)nc1)Nc2nc(ccc(C#N)c3)c3n2CC(F)(F)F]	< 5.00	< 5.00	> 64	< 5.00	4.49	< 5.00	< 5.00	< 5.00	< 5.00	–	–	–	–	–
N#Cc1ccc2nc(NC(=O)c3ccc(C(F)(F)F)nc3)n(CC(F)(F)F)c2c1 [Compound 45, O=C(c1ccc(C(F)(F)F)nc1)Nc2nc(ccc(C#N)c3)c3n2CC(F)(F)F]	< 5.00	< 5.00	–	< 5.00	5.10	< 5.00	< 5.00	< 5.00	< 5.00	> 64	–	–	–	–
N#Cc1ccc2nc(NC(=O)c3ccnc(C(F)(F)F)c3)n(CC(F)(F)F)c2c1 [Compound 44, O=C(c1ccnc(C(F)(F)F)c1)Nc2nc(ccc(C#N)c3)c3n2CC(F)(F)F]	< 5.00	< 5.00	–	< 5.00	5.40	< 5.00	< 5.00	< 5.00	< 5.00	> 64	0.008	30	–	–
Cn1nccc1C(=O)Nc1nc2ccc(C#N)cc2n1CC(C)(C)C [Compound 29, O=C(Nc1n(CC(C)(C)C)c(c2n1)cc(C#N)cc2)c3n(C)ncc3]	< 5.00	< 5.00	14.9	< 5.00	4.56	< 5.00	< 5.00	< 5.00	< 5.00	–	0.029	25	< 4.19	4.31
Cn1nccc1C(=O)Nc1nc2ccc(C#N)cc2n1CC(F)(F)F [Compound 30, O=C(c1ccnn1C)Nc2nc(ccc(C#N)c3)c3n2CC(F)(F)F]	< 5.00	< 5.00	12.8	< 5.00	4.49	< 5.00	< 5.00	< 5.00	< 5.00	–	0.042	17	–	–
Cn1nc(C(F)(F)F)cc1C(=O)Nc1nc2ccc(C#N)cc2n1CC(F)(F)F [Compound 39, O=C(c1cc(C(F)(F)F)nn1C)Nc2nc(ccc(C#N)c3)c3n2CC(F)(F)F]	< 5.00	< 5.00	7.87	< 5.00	5.90	< 5.00	< 5.00	< 5.00	< 5.00	–	0.006	20	4.83	4.46
